Measurements from ChEMBL document CHEMBL3046607, “Synthesis and Herbicidal Activity of New 1-Alkyl-3-aryloxypyrazole-4-carboxamide Derivatives” (J Pestic Sci, 2004).
Active and inactive are the calls of the source. The calls are words filed in the database; no cut-off is given here.

Experiments:
[1] = tested on: Elatine triandra; experiment: Post-emergence herbicidal activity against Elatine triandra assessed as bleaching of stem/leaf parts; type: functional, organism-based; further: test concentration or dose not given here
[2] = tested on: Ammannia multiflora; experiment: Post-emergence herbicidal activity against Ammannia multiflora assessed as bleaching of stem/leaf parts; type: functional, organism-based
[3] = tested on: Rotala indica; experiment: Post-emergence herbicidal activity against Rotala indica assessed as bleaching of stem/leaf parts; type: functional, organism-based
[4] = tested on: Lindernia procumbens; experiment: Post-emergence herbicidal activity against Lindernia procumbens assessed as bleaching of stem/leaf parts; type: functional, organism-based; further: test concentration or dose not given here
[5] = tested on: Schoenoplectiella juncoides; experiment: Post-emergence herbicidal activity against Schoenoplectiella juncoides assessed as bleaching of stem/leaf parts; type: functional, organism-based; further: test concentration or dose not given here
[6] = tested on: Oryza sativa; experiment: Phytotoxicity against Oryza sativa cv. Koshihikari (rice) at 33 g a.i/ha measured after 14 days; type: organism-based; conditions: in vivo, 336 h
[7] = tested on: Ammannia multiflora; experiment: Pre-emergence herbicidal activity against Ammannia multiflora at 33 g a.i/ha measured after 14 days; type: functional, organism-based
[8] = tested on: Elatine triandra; experiment: Pre-emergence herbicidal activity against Elatine triandra at 33 g a.i/ha measured after 14 days; type: functional, organism-based
[9] = tested on: Rotala indica; experiment: Pre-emergence herbicidal activity against Rotala indica at 33 g a.i/ha measured after 14 days; type: functional, organism-based
[10] = tested on: Lindernia procumbens; experiment: Pre-emergence herbicidal activity against Lindernia procumbens at 33 g a.i/ha measured after 14 days; type: functional, organism-based
[11] = tested on: Schoenoplectiella juncoides; experiment: Pre-emergence herbicidal activity against Schoenoplectiella juncoides at 33 g a.i/ha measured after 14 days; type: functional, organism-based
[12] = tested on: Pontederia vaginalis; experiment: Pre-emergence herbicidal activity against Monochoria vaginalis at 33 g a.i/ha measured after 14 days; type: functional, organism-based
[13] = tested on: Cyperus difformis; experiment: Pre-emergence herbicidal activity against Cyperus difformis at 33 g a.i/ha measured after 14 days; type: functional, organism-based
[14] = tested on: Echinochloa oryzicola; experiment: Pre-emergence herbicidal activity against Echinochloa oryzicola at 33 g a.i/ha measured after 14 days; type: functional, organism-based
[15] = tested on: Lindernia procumbens; experiment: Pre-emergence herbicidal activity against Lindernia procumbens assessed as bleaching of stem/leaf parts; type: functional, organism-based
[16] = tested on: Pontederia vaginalis; experiment: Pre-emergence herbicidal activity against Monochoria vaginalis assessed as bleaching of stem/leaf parts; type: functional, organism-based
[17] = tested on: Schoenoplectiella juncoides; experiment: Pre-emergence herbicidal activity against Schoenoplectiella juncoides assessed as bleaching of stem/leaf parts; type: functional, organism-based
[18] = tested on: Cyperus difformis; experiment: Pre-emergence herbicidal activity against Cyperus difformis assessed as bleaching of stem/leaf parts; type: functional, organism-based
[19] = tested on: Echinochloa oryzicola; experiment: Pre-emergence herbicidal activity against Echinochloa oryzicola assessed as bleaching of stem/leaf parts; type: functional, organism-based
[20] = tested on: Oryza sativa; experiment: Phytotoxicity against Oryza sativa cv. Koshihikari (rice) at 10 g a.i/ha measured after 14 days; type: organism-based; conditions: in vivo, 336 h
[21] = tested on: Ammannia multiflora; experiment: Pre-emergence herbicidal activity against Ammannia multiflora at 10 g a.i/ha measured after 14 days; type: functional, organism-based
[22] = tested on: Rotala indica; experiment: Pre-emergence herbicidal activity against Rotala indica at 10 g a.i/ha measured after 14 days; type: functional, organism-based
[23] = tested on: Elatine triandra; experiment: Pre-emergence herbicidal activity against Elatine triandra at 10 g a.i/ha measured after 14 days; type: functional, organism-based
[24] = tested on: Lindernia procumbens; experiment: Pre-emergence herbicidal activity against Lindernia procumbens at 10 g a.i/ha measured after 14 days; type: functional, organism-based
[25] = tested on: Schoenoplectiella juncoides; experiment: Pre-emergence herbicidal activity against Schoenoplectiella juncoides at 10 g a.i/ha measured after 14 days; type: functional, organism-based
[26] = tested on: Pontederia vaginalis; experiment: Pre-emergence herbicidal activity against Monochoria vaginalis at 1 0 g a.i/ha measured after 14 days; type: functional, organism-based
[27] = tested on: Cyperus difformis; experiment: Pre-emergence herbicidal activity against Cyperus difformis at 10 g a.i/ha measured after 14 days; type: functional, organism-based
[28] = tested on: Echinochloa oryzicola; experiment: Pre-emergence herbicidal activity against Echinochloa oryzicola at 10 g a.i/ha measured after 14 days; type: functional, organism-based
[29] = tested on: Cyperus difformis; experiment: Post-emergence herbicidal activity against Cyperus difformis assessed as bleaching of stem/leaf parts; type: functional, organism-based; further: test concentration or dose not given here
[30] = tested on: Pontederia vaginalis; experiment: Post-emergence herbicidal activity against Monochoria vaginalis assessed as bleaching of stem/leaf parts; type: functional, organism-based
[31] = tested on: Echinochloa oryzicola; experiment: Post-emergence herbicidal activity against Echinochloa oryzicola assessed as bleaching of stem/leaf parts; type: functional, organism-based
[32] = tested on: Ammannia multiflora; experiment: Pre-emergence herbicidal activity against Ammannia multiflora assessed as bleaching of stem/leaf parts; type: functional, organism-based
[33] = tested on: Elatine triandra; experiment: Pre-emergence herbicidal activity against Elatine triandra assessed as bleaching of stem/leaf parts; type: functional, organism-based
[34] = tested on: Rotala indica; experiment: Pre-emergence herbicidal activity against Rotala indica assessed as bleaching of stem/leaf parts; type: functional, organism-based
[35] = tested on: Ammannia multiflora; experiment: Pre-emergence herbicidal activity against Ammannia multiflora at 500 g a.i/ha measured after 14 days; type: functional, organism-based
[36] = tested on: Elatine triandra; experiment: Pre-emergence herbicidal activity against Elatine triandra at 100 g a.i/ha measured after 14 days; type: functional, organism-based
[37] = tested on: Elatine triandra; experiment: Pre-emergence herbicidal activity against Elatine triandra at 500 g a.i/ha measured after 14 days; type: functional, organism-based
[38] = tested on: Rotala indica; experiment: Pre-emergence herbicidal activity against Rotala indica at 100 g a.i/ha measured after 14 days; type: functional, organism-based
[39] = tested on: Oryza sativa; experiment: Phytotoxicity against Oryza sativa cv. Koshihikari (rice) at 100 g a.i/ha measured after 14 days; type: organism-based; conditions: in vivo, 336 h
[40] = tested on: Oryza sativa; experiment: Phytotoxicity against Oryza sativa cv. Koshihikari (rice) at 500 g a.i/ha measured after 14 days; type: organism-based; conditions: in vivo, 336 h
[41] = tested on: Ammannia multiflora; experiment: Pre-emergence herbicidal activity against Ammannia multiflora at 100 g a.i/ha measured after 14 days; type: functional, organism-based
[42] = tested on: Rotala indica; experiment: Pre-emergence herbicidal activity against Rotala indica at 500 g a.i/ha measured after 14 days; type: functional, organism-based
[43] = tested on: Lindernia procumbens; experiment: Pre-emergence herbicidal activity against Lindernia procumbens at 100 g a.i/ha measured after 14 days; type: functional, organism-based
[44] = tested on: Lindernia procumbens; experiment: Pre-emergence herbicidal activity against Lindernia procumbens at 500 g a.i/ha measured after 14 days; type: functional, organism-based
[45] = tested on: Schoenoplectiella juncoides; experiment: Pre-emergence herbicidal activity against Schoenoplectiella juncoides at 100 g a.i/ha measured after 14 days; type: functional, organism-based
[46] = tested on: Schoenoplectiella juncoides; experiment: Pre-emergence herbicidal activity against Schoenoplectiella juncoides at 500 g a.i/ha measured after 14 days; type: functional, organism-based
[47] = tested on: Pontederia vaginalis; experiment: Pre-emergence herbicidal activity against Monochoria vaginalis at 500 g a.i/ha measured after 14 days; type: functional, organism-based
[48] = tested on: Pontederia vaginalis; experiment: Pre-emergence herbicidal activity against Monochoria vaginalis at 100 g a.i/ha measured after 14 days; type: functional, organism-based
[49] = tested on: Cyperus difformis; experiment: Pre-emergence herbicidal activity against Cyperus difformis at 100 g a.i/ha measured after 14 days; type: functional, organism-based
[50] = tested on: Cyperus difformis; experiment: Pre-emergence herbicidal activity against Cyperus difformis at 500 g a.i/ha measured after 14 days; type: functional, organism-based
[51] = tested on: Echinochloa oryzicola; experiment: Pre-emergence herbicidal activity against Echinochloa oryzicola at 100 g a.i/ha measured after 14 days; type: functional, organism-based
[52] = tested on: Echinochloa oryzicola; experiment: Pre-emergence herbicidal activity against Echinochloa oryzicola at 500 g a.i/ha measured after 14 days; type: functional, organism-based

| Compound | Activity [1] | Activity [2] | Activity [3] | Activity [4] | Activity [5] | Activity [15] | Activity [16] | Activity [17] | Activity [18] | Activity [19] | Activity [29] | Activity [30] | Activity [31] | Activity [32] | Activity [33] | Activity [34] | Activity [36] | Activity [38] | Activity [39] | Activity [41] | other results |
| --- | --- | --- | --- | --- | --- | --- | --- | --- | --- | --- | --- | --- | --- | --- | --- | --- | --- | --- | --- | --- | --- |
| CCn1cc(C(=O)Nc2ccc(F)cc2F)c(Oc2cccc(C(F)(F)F)c2)n1 | Active | Active | Active | Active | Active | Active | Active | Active | Active | Active | Active | Active | Active | Active | Active | Active | – | – | – | – | Activity [6]: Non-toxic; Activity [7]: Active; Activity [8]: Active; Activity [9]: Active; Activity [10]: Active; Activity [11]: Active; Activity [12]: Active; Activity [13]: Active; Activity [14]: Active; Activity [20]: Non-toxic; Activity [21]: Active; Activity [22]: Active; Activity [23]: Active; Activity [24]: Active; Activity [25]: inactive; Activity [26]: Active; Activity [27]: Active; Activity [28]: Active |
| CCONC(=O)c1cn(C)nc1Oc1cccc(C(F)(F)F)c1 | Active | Active | Active | Active | Active | Active | Active | Active | Active | Active | Active | Active | Active | Active | Active | Active | inactive | inactive | Non-toxic | inactive | Activity [35]: Active; Activity [37]: Active; Activity [40]: Toxic; Activity [42]: Active; Activity [43]: inactive; Activity [44]: Active; Activity [45]: inactive; Activity [46]: Active; Activity [47]: Active; Activity [48]: inactive; Activity [49]: inactive; Activity [50]: Active; Activity [51]: Active; Activity [52]: Active |
| Cn1cc(C(=O)Nc2cccc(S(C)(=O)=O)c2)c(Oc2cccc(C(F)(F)F)c2)n1 | Active | Active | Active | Active | Active | Active | Active | Active | Active | Active | Active | Active | Active | Active | Active | Active | inactive | inactive | Non-toxic | inactive | Activity [43]: inactive; Activity [45]: inactive; Activity [48]: inactive; Activity [49]: inactive; Activity [51]: inactive |
